Assay results as given in patent publication US12295949B2, “Treatment of the gastrointestinal tract with dimeric naphthalimide compounds” (Alumend, LLC, priority 2022, dated 2025).
“And” between values parts separate entries of the source, which are not always exact repeats. Equal entries are not always repeated. “Also recorded” adds a separate entry of the source.

Experiments:
[1] = test system: esophageal tissue in a healthy swine in vivo esophagus; assay: Crosslink healthy in vivo esophagus at two power levels (delivery, soak, balloon dilatation, light activation); design: species or system Yorkshire Cross swine
Description: More specifically, this study evaluated the logistics for esophageal placement of compound I(a) with the use of contrast media, the crosslinking effects of compound I(a), and acute retention of dilation in an in vivo swine model.
An Olympus GIF-140 Endoscope was used in this study. Fluoroscopy was utilized throughout the procedures for confirmation of equipment placement, sample delivery, and removal.
A 60-65 kg Yorkshire Cross (18P118) was used to establish the logistical techniques of the procedure. The animal was fasted for 24 hours prior to the procedure commencing. Post anesthesia swine 18P118 was positioned supinely (on its back) with the surgical table flat. A lavage was performed to flush any remaining contents from the esophagus and stomach. The endoscope was lubricated with a dime size amount of water based Astroglide and inserted into the mouth, passed by the epiglottis, around the pharyngeal diverticulum, through the esophagus and into the stomach. At insertion, the esophagus was partially open, (<5 mm diameter) circular and smooth. The esophagus formed around the catheter and the endoscope inserted instruments, ranging from 4 mm to 12.74 mm in diameter. The endoscope incremental measurements were used to determine the endoscope placement from the front incisor (zero reference point) to the lower esophageal sphincter (71 cm) with the designated working area being between 30 and 60 cm. The endoscope was maintained in the esophagus for the entire procedure.
Using the endoscope, the Edwards Fogarty occlusion catheter and the Vista Brite tip guide catheter were guided down the esophagus and positioned at the 45 cm mark. Positioning them simultaneously, then holding during inflation prevented slippage of the catheters during balloon inflation. The mucosa is loosely attached to the muscularis; the movement of any device in contact with the mucosa influenced the positioning of all inserted devices. […]
Once the volume required to fill the treatment zone was determined the contrast medium was removed. […]

[2] = test system: esophageal strictures generated by endoscopic mucosal resection (EMR); assay: Esophageal stricture (endoscopic mucosal resection) formation and treatment with compound I(a) plus PTA with light in minipigs; type: in vivo, Yucatan minipigs
Description: Five healthy Yucatan minipigs (20-28 kg) were enrolled in the study. For the EMR procedure, each animal was monitored and maintained under anesthesia throughout the duration of the procedure. Each animal was placed in a supine position and elevated to a 5-12 degrees reverse Trendelenburg position, to aid in keeping gastric fluids from coming into the EMR procedural area. A water base lubricant (Astroglide) was used to aid at every insertion of the endoscope.
The upper GI was intubated and surveyed for abnormalities and gastric fluid content via a GIF-XQ140 endoscope. Of the five animals, three animals underwent lavage to remove excess fluid and debris from the esophagus and gastric lumen by washing with saline and suctioning out fluid/debris. A fluoroscopic esophagogram was taken of the target area with the endoscope in place (FIG. 1). The distal tip was measured with a calibrated digital caliper and the measurement was used to calibrate the fluoroscopic measurement tool. […] All representative fluoroscopic and endoscopic imagery are from animal 19P39 unless otherwise stated.
The scope tip was positioned within ±3 cm of the target site. Suction was applied through the gastroscope to visualize the esophageal mucosa at the distal attachment (DA) and to visualize the injection range to capture approximately three-fourths of the esophageal lumen at the target site. The needle from the disposable EMR kit was inserted through the endoscope biopsy channel and into the endoscope field of view (FIG. 2A). The injector slider was pushed until it clicked into position to extend the needle from the sheath. A 10 mL syringe with saline was connected to the injector port. Suction was applied and the injector needle advanced to pierce the target mucosa and to inject a bolus of saline (FIG. 2B). The target area was injected with 0.5 mL to 2.0 mL of saline multiple times to reach a coverage of approximately three-fourths circumference of the target area. Following injections suction was released, and the needle withdrawn from the biopsy channel for insertion of the snare.
The snare was used to remove the blistered mucosal tissue from the treated area. The snare was retracted and inserted into the biopsy channel and advanced into the field of view with the distal sheath. The snare was connected to the electrosurgical unit (Olympus PSD-20). The electrosurgical unit has two settings, one setting is CUT, which is used to cut the tissue and the other setting is COAG, which is used to cauterize the tissue. The snare loop tip was slowly extended approximately 5-10 mm beyond the DA, and CUT was activated marking the base of the tissue bolus by cauterizing the mucosa (FIG. 3A). Suction was used to draw the tissue bolus partially into the DA, and CUT was activated to separate the target mucosa from the submucosa/muscularis. The snare loop was also used as a lasso to remove the partially resected mucosa by cinching the snare closed around the resection (FIG. 3B) and activating the CUT pedal and COAG pedal as needed. The tissue that was not easily removed with the snare was removed with a coagrasper (FIG. 3C). The natural contraction movements of the esophagus posed some difficulty with maintaining a perfect depth to only exposing the submucosal tissue and to maintaining a consistent resection length throughout the resected area. For some animals there were portions of muscularis tissue exposed and some spiraling to the resected area due to the esophageal contractions (FIG. 4). Following the EMR a post procedural fluoroscopic esophagogram (FIG. 5) was taken and the animal recovered from anesthesia.
The EMR in the target area span approximately 270 degrees circumference and less than 2 cm wide.
On Day 21, post stricture induction, animals underwent anesthesia for evaluation of stricture formation and for stricture treatment. No lavage was needed to the esophagus or gastric lumen to complete the treatment on any of the animals. […]

[3] = test system: ex-vivo healthy swine arterial tissue; assay: Fluorescence microscopy of ex-vivo arterial tissue cross-sections after delivery of 10-8-10 Dimer; type: in vitro ADME; conditions: 2 mg/mL for five minutes, 60x fluorescence microscopy
Protocol: FIGS. 32A and B are fluorescence microscopy images of ex-vivo healthy swine arterial tissue cross-section delivered with 2 mg/mL 10-8-10 Dimer for five minutes; wherein (A) is a fluorescence image at 60× magnification and (B) is at 60× magnification with fluorescence and greyscale overlay. FIGS. 32A and B are 60× fluorescence microscopy images of ex-vivo healthy swine arterial tissue cross-sections treated with 2 mg/mL 10-8-10 Dimer for five minutes; wherein (A) is a fluorescence image and (B) is a fluorescence and greyscale overlay.

[4] = test system: ex-vivo healthy swine esophageal tissue; assay: Fluorescence microscopy of ex-vivo esophageal tissue cross-section after delivery of 10-8-10 Dimer; type: in vitro ADME
Protocol: FIGS. 34A and B are fluorescence microscopy images of ex-vivo healthy swine esophageal tissue cross-section delivered with 4 mg/mL 10-8-10 Dimer for five minutes; wherein (A) is a fluorescence image at 4× magnification, and (B) is at 4× magnification with the fluorescence and greyscale overlay). FIGS. 34A and B are 4× fluorescence microscopy images of ex-vivo healthy swine esophageal tissue cross-section treated with 4 mg/mL 10-8-10 Dimer for five minutes; wherein (A) is a fluorescence image, and (B) is the fluorescence and greyscale overlay. As shown therein, The penetration of 10-8-10 Dimer into ex-vivo esophageal tissue is also vastly different from arterial tissue penetration. […] Treatment with 2 mg/ml of 10-8-10 Dimer was ineffective. In contrast to the treatment of arterial tissue, the 10-8-10 Dimer was efficacious at a concentration 100% greater.

[5] = Study Day 21, fluoroscopic, PTA + compound I(a) w/light, one row per animal
[6] = Study Day 49 necropsy, cross-section of esophagus, compound I(a) + PTA w/ light, one row per animal
[7] = 4 mg/mL for five minutes, 4x fluorescence microscopy

abnormalities of the entire esophagus via endoscope imaging ([2]; Day 21 post treatment, compound I(a) plus PTA balloon with light animals, other than the stricture area): no abnormalities were seen
fluorescence in the submucosa or muscularis [4, 7]: no significant fluorescence
Structure (SMILES): NCCOCCOCCNc1ccc2c3c(cccc13)C(=O)N(CCOCCOCCN1C(=O)c3cccc4c(NCCOCCOCCN)ccc(c34)C1=O)C2=O [compound I(a)]
crosslinking of the esophageal tissue (esophagus open at treated sites) ([1]; 10 mg/mL, 10 min soak, balloon dilatation, laser 74 mW/cm2 (site A) or 32 mW/cm2 (sites B, C) for 2 minutes): indications of potential crosslinking were seen at multiple sites; also recorded: opening at sites A, B and C indicate a crosslinking of the esophageal tissue
penetration of esophageal tissue (yellow coloration of the tissue) ([1]; 8 mL of compound I(a) 10 mg/mL in PBS, 10 minutes soak, treatment sites A, B, C, endoscopic observation): penetration was observed; also recorded: yellow coloration of the tissue is indicative of compound I(a) penetration; also recorded: yellow coloration of the esophagus confirmed delivery
irritation of the esophagus on endoscopy or necropsy examination ([1]; post treatment, entire length of the esophagus, slight irritation at site C attributed to TAPAS catheter): No significant irritation
penetration at stricture site (yellow coloration of the esophagus) ([2]; 10 mg/ml in PBS, 10 minutes soak, Day 21): Yellow coloration of the esophagus was observed indicating penetration
re-epithelialization (pathology report) ([2]; Day 49 microscopic evaluation, compound I(a) plus PTA balloon with light): complete
Diameter of Stricture (mm) 0 min. post TX ([2]; Study Day 21, fluoroscopic, PTA + compound I(a) (10 mg/ml in PBS, 10 min soak) w/light 74 mW/cm2, one row per animal): 15.88 mm and 13.0 mm and 12.4 mm
Diameter of Stricture (mm) 30 min. post TX [2, 5]: 17.13 mm and 7.5 mm and 14.8 mm
Diameter of Stricture (mm) 60 min. post TX [2, 5]: 13.8 mm and 8.5 mm and 10.9 mm
Length of Stricture (mm) Endoscopic scan post TX ([2]; Study Day 21, post treatment, PTA + compound I(a) w/light, one row per animal): 30 mm (2×) and 17 mm
Length of Stricture (mm) Fluoroscopic ([2]; Study Day 49 (four weeks post treatment), compound I(a) + PTA w/light, one row per animal): 12.6 mm (2×) and 12.8 mm
Stricture Length [2, 6]: 3-11 millimeters and 5 millimeters and 25 millimeters
Stricture Width [2, 6]: 12 millimeters and 10 millimeters and 7 millimeters
Diameter of Stricture Post TX ([2]; Table 3, Study Day 49 (four weeks post treatment), fluoroscopic, compound I(a) + PTA w/light, one row per animal): 4.9 mm and 6.0 mm and 7.4 mm
Diameter of Stricture Post TX ([2]; Table 10, post treatment, 29 days apart, compound I(a) + PTA w/light, one row per animal, in mm): 6.0 and 7.4 and 4.9
percent gain at the stricture site post-treatment ([2]; all compound I(a) plus PTA balloon with light treated animals, Table 10): increase in percent gain
% Stricture Diameter Change Before and Post Treatment ([2]; before and post treatment 29 days apart, compound I(a) + PTA w/light, one row per animal): 22.4% and 94.7% and 169%
restoring the esophagus to a healthier diameter and movement ([2]; compound I(a) plus PTA balloon with light, in comparison with PTA balloon only treatment (19P38)): better success
retention of dilation ([2]; four weeks after treatment with compound I(a) crosslinking): demonstrated retention of dilation
penetration into arterial tissue (fluorescence) [3]: penetrated through the arterial intima and into the media
treatment of esophageal tissue at 2 mg/ml ([4]; 2 mg/ml): ineffective
location of 10-8-10 Dimer fluorescence in esophageal tissue [4, 7]: preponderance of 10-8-10 Dimer fluorescence is in the epithelium
treatment of esophageal tissue at higher concentration ([4]; concentration 100% greater than for arterial tissue (4 mg/mL vs 2 mg/mL)): efficacious
